According to publication PMC9735621, “Synthesis, Biological Evaluation and Computational Studies of New Hydrazide Derivatives Containing 1,3,4-Oxadiazole as Antitubercular Agents” (International Journal of Molecular Sciences, 2022):
Several values for one entry are separate records, joined by “and”; a condition that tells them apart may be missing. Equal values may be shown once. Read-outs that look alike come from different tables or passages of the source.

How the values were obtained:
M. tuberculosis H37Ra = experiment: microbe, parasite or virus in culture; type: cell-based, Mycobacterium tuberculosis
[1] = Cytotoxicity, resazurin cell viability assay; type: cell-based, human; conditions: human, SH-SY5Y neuroblastoma cells; SH-SY5Y cells, 48 h; mean ± SEM
Procedure: (§1) Cell viability was assayed by using Resazurin (SERVA Electrophoresis GmbH, Heidelberg, Germany). This cell-permeable dye is reduced by aerobic respiration of metabolically active cells to resorufin, whose fluorescence is proportional to the number of live cells. The stock solution of resazurin sodium salt (440 μM, 10×) was resuspended in Phosphate Buffered Saline (PBS) and stored at −20 °C. Working solution (44 μM) was prepared on the same day of each assay by diluting resazurin stock solution in a standard culture medium. The human neuroblastoma cell line SH-SY5Y was used to test the cytotoxicity of five selected compounds (1h, and 1k–n). The cells were maintained in Dulbecco’s modified Eagle’s medium (DMEM; Gibco, Life Technologies Inc., Frederick, MD, USA) supplemented with 10% (v/v) fetal bovine serum (FBS) and Antibiotic Antimycotic Solution (100 U penicillin, 100 μg/mL streptomycin and 0.25 μg/mL amphotericin B; Sigma-Aldrich, St. Louis, MO, USA) at 37 °C in a humidified incubator with a 5% CO2/95% air atmosphere.
(§2) In the cytotoxicity tests, SH-SY5Y cells were seeded at a density of 5 × 10^3 cells/well in a 96-well plate and grown for another 24 h. Cells were then treated in triplicate with serial dilutions (100 μM, 50 μM, 25 μM, 12.5 μM, 6.25 μM, 3.125 μM) of selected compounds. After 48 h, the culture medium in each well was replaced with 100 μL of Resazurin working solution (44 μM). The fluorescent signal of the resorufin was monitored with Excitation λ = 530 nm and Emission λ = 590 nm by using an Envision 2104 Multi-label Microplate Reader (Perkin Elmer, Boston, MA, USA). Measurements were performed at time 0 and after 1 h of incubation. The percentage of viability was calculated after subtraction of the background (obtained by killing the cells), on the basis of the ratio between the fluorescence values of the cells incubated with a compound and the fluorescence values of cells incubated with the solvent (1% DMSO). The viability of cells incubated with 1% DMSO was considered to be equivalent to 100%. The statistical analysis was carried out with GraphPad Prism 6 (GraphPad Software, Inc., La Jolla, CA, USA) software using an unpaired t-test, and a p-value < 0.05 was considered statistically significant. Cytotoxicity (CC50) was determined from dose-response curves analyzed by using GraphPad Prism software.

SH-SY5Y cells = experiment: Cytotoxicity, resazurin cell viability assay; type: cell-based, human; conditions: for Viability (%) vs DMSO: SH-SY5Y, 48 h, average ± SEM; for Cytotoxicity (in words): SH-SY5Y cells, tested concentrations up to 100 μM
Procedure: as §1, §2

M. tuberculosis H37Rv = experiment: microbe, parasite or virus in culture; type: cell-based; conditions: Mycobacterium tuberculosis
[2] = Mycobacterium tuberculosis, H37RA

O=C(N/N=C\c1ccncc1)c1nnc(-c2ccccc2)o1 [1m, (Z)-5-phenyl-N’-(pyridin-4-ylmethylen)-1,3,4-oxadiazol-2-carbohydrazide]
MIC (M. tuberculosis H37Ra; [2]): 8 µg/mL and 27.4 µM
CC50 at 48 h [1]: 128 ± 16 µM
Viability (%) vs DMSO (SH-SY5Y cells; 3.125 µM): 100 ± 14%
Viability (%) vs DMSO (SH-SY5Y cells; 6.25 µM): 100 ± 14%
Viability (%) vs DMSO (SH-SY5Y cells; 12.5 µM): 98 ± 16%
Viability (%) vs DMSO (SH-SY5Y cells; 25 µM): 96 ± 14%
Viability (%) vs DMSO (SH-SY5Y cells; 50 µM): 87 ± 11%
Viability (%) vs DMSO (SH-SY5Y cells; 100 µM): 61 ± 9%
MIC (M. tuberculosis H37Rv): > 64 µg/mL
melting point: 243 to 245 °C

NNC(=O)c1ccncc1 [INH, Isoniazid, reference compound]
MIC (M. tuberculosis H37Ra; [2]): 0.25 µg/mL and 1.8 µM
MIC (M. tuberculosis H37Rv): 0.25 µg/mL
MIC (M. tuberculosis H37Rv; […], value in brackets): 1.8 µM

O=C(N/N=C\c1ccc[nH]1)c1nnc(-c2ccccc2)o1 [1k, (Z)-N’-((1H-pyrrol-2-yl)methylen)-5-phenyl-1,3,4-oxadiazol-2-carbohydrazide]
MIC (M. tuberculosis H37Ra; [2]): 8 µg/mL and 28.3 µM
CC50 at 48 h [1]: 50 ± 6 µM
Viability (%) vs DMSO (SH-SY5Y cells; 3.125 µM): 100 ± 13%
Viability (%) vs DMSO (SH-SY5Y cells; 6.25 µM): 100 ± 13%
Viability (%) vs DMSO (SH-SY5Y cells; 12.5 µM): 101 ± 14%
Viability (%) vs DMSO (SH-SY5Y cells; 25 µM): 81 ± 12%
Viability (%) vs DMSO (SH-SY5Y cells; 50 µM): 49 ± 7%
Viability (%) vs DMSO (SH-SY5Y cells; 100 µM): 37 ± 6%
MIC (M. tuberculosis H37Rv): 8 µg/mL
MIC (M. tuberculosis H37Rv; […], value in brackets): 28.3 µM
melting point: 185 to 187 °C

O=C(N/N=C\c1ccncc1)c1nnc(-c2ccncc2)o1 [1f, (Z)-5-(pyridin-4-yl)-N’-(pyridin-4-ylmethylen)-1,3,4-oxadiazol-2-carbohydrazide]
MIC (M. tuberculosis H37Ra; [2]): 64 µg/mL and 217 µM
MIC (M. tuberculosis H37Rv): > 64 µg/mL

O=C(N/N=C\c1ccc(Cl)cc1)c1nnc(-c2ccncc2)o1 [1b, (Z)-N’-(4-chlorobenzyliden)-5-(pyridin-4-yl)-1,3,4-oxadiazol-2-carbohydrazide]
MIC (M. tuberculosis H37Ra): >64 (-) μg/mL
MIC (M. tuberculosis H37Ra; [2]): > 64 µg/mL
MIC (M. tuberculosis H37Rv): > 64 µg/mL

O=C(N/N=C\c1ccccn1)c1nnc(-c2ccccc2)o1 [1l, (Z)-5-phenyl-N’-(pyridin-2-ylmethylen)-1,3,4-oxadiazol-2-carbohydrazide]
MIC (M. tuberculosis H37Ra; [2]): 8 µg/mL and 27.4 µM
CC50 at 48 h [1]: 100 ± 12 µM
Viability (%) vs DMSO (SH-SY5Y cells; 3.125 µM): 100 ± 12%
Viability (%) vs DMSO (SH-SY5Y cells; 6.25 µM): 100 ± 12%
Viability (%) vs DMSO (SH-SY5Y cells; 12.5 µM): 98 ± 13%
Viability (%) vs DMSO (SH-SY5Y cells; 25 µM): 93 ± 13%
Viability (%) vs DMSO (SH-SY5Y cells; 50 µM): 70 ± 10%
Viability (%) vs DMSO (SH-SY5Y cells; 100 µM): 49 ± 7%
MIC (M. tuberculosis H37Rv): 8 µg/mL
MIC (M. tuberculosis H37Rv; […], value in brackets): 27.1 µM
melting point: 242 to 243 °C

O=C(N/N=C\c1ccco1)c1nnc(-c2ccccc2)o1 [1n, (Z)-N’-(furan-2-ylmethylen)-5-phenyl-1,3,4-oxadiazol-2-carbohydrazide]
MIC (M. tuberculosis H37Ra; [2]): 8 µg/mL and 28.3 µM
CC50 at 48 h [1]: > 100 µM
Cytotoxicity (in words) (SH-SY5Y cells): no cytotoxicity at tested concentrations
Viability (%) vs DMSO (SH-SY5Y cells; 3.125 µM): 100 ± 11%
Viability (%) vs DMSO (SH-SY5Y cells; 6.25 µM): 100 ± 11%
Viability (%) vs DMSO (SH-SY5Y cells; 12.5 µM): 99 ± 15%
Viability (%) vs DMSO (SH-SY5Y cells; 25 µM): 100 ± 12%
Viability (%) vs DMSO (SH-SY5Y cells; 50 µM): 100 ± 13%
Viability (%) vs DMSO (SH-SY5Y cells; 100 µM): 97 ± 11%
MIC (M. tuberculosis H37Rv): 16 µg/mL
MIC (M. tuberculosis H37Rv; […], value in brackets): 56.6 µM
melting point: 221 to 223 °C

O=C(N/N=C\c1ccc[nH]1)c1nnc(-c2ccncc2)o1 [1d, (Z)-N’-((1H-pyrrol-2-yl)methylen)-5-(pyridin-4-yl)-1,3,4-oxadiazol-2-carbohydrazide]
MIC (M. tuberculosis H37Ra; [2]): 64 µg/mL and 226 µM
MIC (M. tuberculosis H37Rv): > 64 µg/mL

O=C(N/N=C\c1ccccc1)c1nnc(-c2ccncc2)o1 [1a, (Z)-N’-benzyliden-5-(pyridin-4-yl)-1,3,4-oxadiazol-2-carbohydrazide]
MIC (M. tuberculosis H37Ra; [2]): 64 µg/mL and 218 µM
MIC (M. tuberculosis H37Rv): > 64 µg/mL
melting point: 207 to 209 °C

O=C(N/N=C\c1ccc(Cl)cc1)c1nnc(-c2ccccc2)o1 [1i, (Z)-N’-(4-chlorobenzyliden)-5-phenyl-1,3,4-oxadiazol-2-carbohydrazide]
MIC (M. tuberculosis H37Ra; [2]): 16 µg/mL and 48.9 µM
MIC (M. tuberculosis H37Rv): > 64 µg/mL
melting point: 243 to 245 °C

O=C(N/N=C\c1ccccc1)c1nnc(-c2ccccc2)o1 [1h, (Z)-N’-benzyliden-5-phenyl-1,3,4-oxadiazol-2-carbohydrazide]
MIC (M. tuberculosis H37Ra; [2]): 8 µg/mL and 27.4 µM
CC50 at 48 h [1]: > 100 µM
Cytotoxicity (in words) (SH-SY5Y cells): no cytotoxicity at tested concentrations
Viability (%) vs DMSO (SH-SY5Y cells; 3.125 µM): 100 ± 13%
Viability (%) vs DMSO (SH-SY5Y cells; 6.25 µM): 99 ± 13%
Viability (%) vs DMSO (SH-SY5Y cells; 12.5 µM): 99 ± 11%
Viability (%) vs DMSO (SH-SY5Y cells; 25 µM): 99 ± 15%
Viability (%) vs DMSO (SH-SY5Y cells; 50 µM): 100 ± 14%
Viability (%) vs DMSO (SH-SY5Y cells; 100 µM): 97 ± 12%
MIC (M. tuberculosis H37Rv): > 64 µg/mL
melting point: 194 to 196 °C

O=C(N/N=C\c1ccccn1)c1nnc(-c2ccncc2)o1 [1e, (Z)-N’-(pyridin-2-ylmethylen)-5-(pyridin-4-yl)-1,3,4-oxadiazol-2-carbohydrazide]
MIC (M. tuberculosis H37Ra; [2]): 32 µg/mL and 108 µM
MIC (M. tuberculosis H37Rv): 16 µg/mL
MIC (M. tuberculosis H37Rv; […], value in brackets): 54 µM
melting point: 255 to 259 °C

CO[C@H]1/C=C/O[C@@]2(C)Oc3c(C)c(O)c4c(O)c(c(/C=N/N5CCN(C)CC5)c(O)c4c3C2=O)NC(=O)/C(C)=C\C=C\[C@H](C)[C@H](O)[C@@H](C)[C@@H](O)[C@@H](C)[C@H](OC(C)=O)[C@@H]1C [RIF, reference compound]
MIC (M. tuberculosis H37Rv): 0.5 µg/mL
MIC (M. tuberculosis H37Rv; […], value in brackets): 0.6 µM

Cc1ccc(/C=N\NC(=O)c2nnc(-c3ccncc3)o2)cc1 [1c, (Z)-N’-(4-methylbenzyliden)-5-(pyridin-4-yl)-1,3,4-oxadiazol-2-carbohydrazide]
MIC (M. tuberculosis H37Ra; [2]): 64 µg/mL and 195 µM
MIC (M. tuberculosis H37Rv): > 64 µg/mL

Cc1ccc(C=NNC(=O)c2nnc(-c3ccccc3)o2)cc1 (mixture of isomers) [1j, (E/Z)-N’-(4-methylbenzyliden)-5-phenyl-1,3,4-oxadiazol-2-carbohydrazide]
MIC (M. tuberculosis H37Ra; [2]): 16 µg/mL and 52.2 µM
MIC (M. tuberculosis H37Rv): > 64 µg/mL
melting point: 200 to 202 °C

O=C(N/N=C\c1ccco1)c1nnc(-c2ccncc2)o1 [1g, (Z)-N’-(furan-2-ylmethylen)-5-(pyridin-4-yl)-1,3,4-oxadiazol-2-carbohydrazide]
MIC (M. tuberculosis H37Ra; [2]): 64 µg/mL and 226 µM
MIC (M. tuberculosis H37Rv): > 64 µg/mL
melting point: 236 to 242 °C
